Test results taken from US5643890A, “Synthetic oligonucleotides which mimic telomeric sequences for use in treatment of cancer and other diseases” (priority 1995, dated 1997).
Read-outs that look alike come from different tables or passages of the source.

Legend:
OMA-BL1 cells = experiment: Growth rate / doubling time of OMA-BL1 cells cultured with oligo; assay type: cell-based, human; settings: for Doubling Time (Hours of Doubling): observed for 5 days
Description: A cell line, OMA-BL1, of cells derived from an American Burkitt's lymphoma patient, which had the typical 8:14 chromosome translocation characteristic of Burkitt's lymphoma was tested according to the method of the invention. The OMA-BL1 cells have a homologous staining region along chromosome 18 (18 HSR). The cell line was grown in vitro consisting of RPMI 1640 medium supplemented with 20% fetal calf serum (RF20). 2 mM L-glutamine and antibiotics (streptomycin 100 μ/ml and penicillin) 2× week.
Phosphorothioate oligonucleotides corresponding to the recognition sequence for telomerase enzyme were synthesized. The sequence of oligonucleotides tested was 5'-(TTAGGG)-3' SEQ ID NO: 3. They were dissolved in RPMI1640 medium before using.
The cell lines were grown under concentration of 5×10^5 cells/ml and RPMI1640 with and without different concentrations of oligo. Concentrations of oligo used in the study were 1.25 μM and 2.5 μM. The growth rate of the cells was measured by counting the cells with a light microscope and Neuber cell counter on days 1, 3, and 5 after initiation of the culture. […]

[1] = system: OMA-BL1, Burkitt's Lymphoma; experiment: In vivo efficacy, OMA-BL1 Burkitt's lymphoma in nude mice, continuous subcutaneous infusion
Description: Nude mice were injected with 5×10^6 OMA-BL1 cells subcutaneously in the leg flank. The mice were observed daily for the appearance of tumors and general well-being. […] The mean fill volume of these pumps is 0.226 ml. A solution of 4 mg/ml of 6-mers and 20 μl of FITC-TAG-6 was prepared then sterile filtered through a 0.22 μm in line filter (Millipore). […]

[2] = system: highly metastatic breast cancer cell line (Human); experiment: Tumor invasion assay (Matrigel invasion chambers) and proliferation, human breast cancer cell line; assay type: cell-based; settings: for % control invasion / % inhibition: Human cell line, 48 hours; for proliferation (in words): human highly metastatic breast cancer cell line; for % inhibition: invasion
telomerase [3] = experiment: FAM labeled 6-mer recovered from urine of tumor-bearing nude mouse, size analysis of telomerase products; assay type: in vivo; settings: nude mouse bearing OMA-BL1 tumor
Description: An FAM labeled 6-mer 5'-d(TTAGGG)-3' SEQ ID NO: 3 was injected into nude mice with Burkitt's lymphoma (OMA-BL1) cells growing in them. The FAM labeled TELIGO was recovered from the urine of a nude mouse bearing a tumor composed of OMA-BL1 cells. The urine was evaluated on an Applied Biosystem, Inc. Gene Scanner which can separate the products of the telomerase enzyme by size along the abscissa and reports the quantity of products by the fluorescence intensity along the ordinate in arbitrary units. An internal standard of rhodamine labeled nucleic acids is run in the same gel in order to establish the measurement of size of the telomerase enzyme products of the TELIGO. The FAM label verifies that the DNA is from the injected TELIGO 6-mer and the size additions of intervals of 6-base lengths is evidence of the telomerase enzyme activity which adds 6 bases per catalytic cycle.
All products were multiples of six which is significant because in that telomerase adds bases to telomeres in multiples of six. Thus it would seem the 6-mer interacts with telomerase to form unique products verifying interaction in vivo.

Telomerase enzyme = experiment: Telomerase activity in extract of Chang cells incubated with oligo (32P-dGTP primer elongation, gel autoradiograph); assay type: cell-based, human; settings: 3 μM oligo, three hours
Description: Chang cells (human liver carcinoma) were grown in three T150 flasks until they reached confluency. 5'-d(TTAGGG)-3' SEQ ID NO: 3 phosphorothioate oligonucleotide was added at 3 μM concentration to each of the flasks and was allowed to incubate for three hours. Cells were harvested by scraping with a rubber policeman. Telomerase enzyme was prepared according to the method of Dignam, J. D.; Lebovitz, R. M.; and Raeder, R. G. (1983). Accurate transcription initiation by RNA Polymerase II in a Soluble Extract From Isolated Mammalian Nuclei. Nucl. Acids Res. 11, 1475-1489. 20 μL samples were taken from -80° C. and 20 μL of a reaction mixture containing 4.0mM dATP, 4.0mM dTTP, 4.0 mM dGTP, 2.0 μM (5'-d(TTAGGG)3 -3') SEQ ID NO: 4 primer, 10 mM β-mercaptanol, 100 mM TRIS-acetate pH 8.5, 2.0 mM MgCl2, 1 mM spermidine, and 2 μL of 3000 Ci/mmol P^32 labeled dGTP.
Samples were incubated for 30 minutes at 30° C. and stopped by the addition 10 μL […] EDTA pH 8.0 and 2.0 μL of tracking dye. Samples were loaded onto a 12.5 percent acrylamide gel and run at 25 mA constant power for 4-5 hours until the tracking dye had run off the gel. The gel was then soaked in 10 percent glycerol and water and dried overnight between two sheets of cellophane. […] The telomerase activity was inhibited for the 6-mer oligo.

[4] = system: OMA-BL1 cells, PBE1 cells, HPB-null cell line; experiment: Cellular uptake of FITC-labeled oligo; assay type: cell-based; settings: 6-mer compared with 18-mer; cell lines which have differentiated
Source text: Several studies were done on cellular uptake and thus efficiency of oligonucleotide sequences mimicking the telomere motif. FIGS. 4 and 5 depict the comparison of the 18-mer 5'-d(TTAGGG)3 -3' SEQ ID NO: 4 with the 6-mer TELIGO 5'-d(TTAGGG)-3' SEQ ID NO: 3 for cellular uptake of FITC-labeled oligo in OMA-BL1 cells (FIGS. 5 and 4(a)), PBE1 cells FIG. 4(b) and in the nondifferentiated HPB-null cell line FIG. 4(c). […] FIG. 6 depicts the effects of 5'-d(TTAGGG)-3' SEQ ID NO: 3 on growth of OMA-BL1 cells in vitro at 1.25 μM and 2.5 μM.

410.4 cells = experiment: Tumor invasion assay (Matrigel invasion chambers) and proliferation, mouse breast cancer cell line; assay type: cell-based; settings: for % control invasion / % inhibition: Mouse cell line, 48 hours; for % inhibition: invasion; for proliferation (in words): mouse highly metastatic breast cancer cell line
Description: Migration of 410.4 cells through matrigel coated Nucleopore filters was measured using Matrigel invasion chambers (Collaborative Biomedical Products). These chambers contained inserts with […] pore size and were coated with a uniform film of matrigel. 4×10^4 410.4 cells in Weymouths Medium plus 0.1% bovine serum albumin were added to the invasion chambers. The wells below the invasion chambers contained 0.5 ml of Weymouths plus 10% fetal calf serum as a chemoattractant. […] The noninvasive cells were then removed from the upper surface of the membrane with a cotton swab and the cells on the lower surface were stained using a Leucostat staining kit. The membranes then were removed from the chamber using a scalpel and the cells were counted under high power (450×) in 5 random fields.

cell line = settings: cited from earlier work
telomerase [5] = experiment: HPB-null cell lysate, incorporation of labeled nucleic acids onto TELIGO 18-mer; assay type: cell-based; settings: HPB-null cells
telomerase [6] = experiment: Telomerase activity in OMA-BL1 cell lysate (densitometry of autoradiograph); assay type: biochemical, human; settings: test not specified at b115
Description: An OMA-BL1 cell lysate was prepared to retain telomerase activity. The telomerase enzyme adds radioactive nucleic acids to the substrate which are separated on a polyacrylamide gel. The relative radioactivity in the gel was measured by densitomitry of the autoradiograph.

[7] = nude mice, 48 μg/day, 14 days, subcutaneous infusion

| Substance | Doubling Time (Hours of Doubling) (OMA-BL1 cells; 1.25 μM oligo) [h] | Doubling Time (Hours of Doubling) (OMA-BL1 cells; 2.5 μM oligo) [h] | effect on cell proliferation (in words) (OMA-BL1 cells) | also measured |
| --- | --- | --- | --- | --- |
| 5'-d(GTTGAGGGG)-3' (DNA, backbone not given here) | 49.4 ± 4.02 | 60.71 ± 4.25 | – | – |
| 5'-d(TAGGG)-3' (DNA, backbone not given here) | 48.5 ± 3.0 | 41.6 ± 2.0 | no inhibitory effect | – |
| 5'-d(TCCTAGGTCCATGTCGTACGC)-3' (DNA, backbone not given here) [reference compound] | – | 38 | – | – |
| 5'-d(TGAGG)-3' (DNA, backbone not given here) | 30.3 ± 39 | 42.0 ± 6.8 | – | – |
| 5'-d(TGTGAG)-3' [reference compound] | 42.4 ± 1.8 | 40.9 ± 2.3 | – | tumor regression [1, 7]: no such action was observed |
| 5'-d(TTAGG)-3' (DNA, backbone not given here) | 31.2 ± 8.5 | 36.7 ± 3.1 | no inhibitory effect | – |
| 5'-d(TTAGGG)-3' (phosphorothioate backbone) [6-mer oligonucleotide which mimics the telomere motif] | 59.4 ± 7.5 | > 100 | drastically decreasing cell proliferation | % control invasion [2]: 30%; proliferation (in words) [2]: inhibition of proliferation; % inhibition [2]: 70%; substrate for telomerase in vivo (FAM-labeled products in urine, multiples of six) (telomerase [3]): substrate for telomerase in vivo; telomerase activity (elongation on autoradiograph) (Telomerase enzyme): inhibited; cellular uptake of FITC-labeled oligo [4]: considerably higher cellular uptake; effect on cell proliferation (in words) (OMA-BL1 cells; listed as phosphorothioate 6-mer): significant decrease in cell proliferation; % control invasion (410.4 cells): 15%; % inhibition (410.4 cells): 75%; proliferation (in words) (410.4 cells): inhibition of proliferation; toxicity during the treatment [1, 7]: No toxicity was observed; tumor regression [1, 7]: regression of tumors; localization of the oligonucleotide ([1]; tumor bearing nude mice, continuous subcutaneous infusion): localization of the oligonucleotide in tumors |
| 5'-d(TTAGGGTTAGGG):' (DNA, backbone not given here) [two telomere repeats] | > 100 | > 100 | – | days in culture before any observable response (cell line): ≤ 6 days |
| 5'-d(TTAGGGTTAGGGTTAGGG)-3' (DNA, backbone not given here) | > 100 | > 100 | – | % control invasion [2]: 8%; proliferation (in words) [2]: inhibition of proliferation; % inhibition [2]: 92%; extension on the TELIGO 18-mer (retained radioactivity) (telomerase [5]): dependent upon the dose; % control invasion (410.4 cells): 21%; % inhibition (410.4 cells): 79%; proliferation (in words) (410.4 cells): inhibition of proliferation |
| 5'-d(TTAGGGTTAGGGTTAGGGTTAGGG)-3' | > 100 | > 100 | – | – |
| 5'AACGGTGAGGGGCAT-3' (chemistry not given here) [c-myc, antisense oligo to the c-myc gene, reference compound] | – | – | significantly decreased cellular proliferation | – |
| 5'TATGCTGTGCCGGGGTCTTCGGGC-3' (chemistry not given here) [c-myb antisense oligonucleotide, reference compound] | – | – | significantly decreased cellular proliferation | – |
| TGTGAGGGG (chemistry not given here) [myc 9-mer, 9-mer derived from the antisense oligo c-myc, contains a motif substantially analogous to the telomere motif] | – | – | effects similar to the 6-met | telomerase activity (in words) (telomerase [6]): inhibited |
